In ChEMBL document CHEMBL1759930, “Structural requirements of (E)-6-benzylidene-4a-methyl-4,4a,5,6,7,8-hexahydronaphthalen-2(3H)-one derivatives as novel melanogenesis inhibitors” (Bioorg Med Chem Lett, 2011):

Tests used:
B16 [1] = test: Inhibition of alpha-MSH -stimulated melanogenesis in mouse B16 cells assessed as melanin release at 10 uM after 3 days; type: functional; conditions: B16, 72 h
B16 [2] = test: Inhibition of alpha-MSH -stimulated melanogenesis in mouse B16 cells assessed as melanin release after 3 days; type: functional, cell-based; conditions: B16, 72 h

Row | IC50 (B16 [2]) | SMILES | inhibition at 10 µM (B16 [1])
1 | 17.1 µM | Cc1ccc(/C=C2\CCC3=CC4(CCC3(C)C2=O)SCCS4)cc1 (stereo not given) | > 100%
2 | > 30 µM | CC1CCC/C(=C\c2ccccc2)C1=O (stereo not given) | < 10%
3 | 11.5 µM | CC12CCC3(C=C1CC/C(=C\c1cccc4ccccc14)C2=O)SCCS3 (stereo not given) | 85%
4 | 25.5 µM | CC12CCC3(C=C1CC/C(=C\c1ccc(Cl)c(Cl)c1)C2=O)SCCS3 (stereo not given) | 62%
5 | > 30 µM | COc1ccc(/C=C2\CCC3=CC4(CCC3(C)C2=O)SCCS4)cc1OC (stereo not given) | 43%
6 | 13.5 µM | CC12CCC3(C=C1CC/C(=C\c1ccc(OCc4ccccc4)cc1)C2=O)SCCS3 (stereo not given) | 80%
7 | 6 µM | COc1ccc(/C=C2\CCC3=CC(=O)CCC3(C)C2=O)cc1 (stereo not given) | 72%
8 | > 30 µM | CC1CCC/C(=C\c2ccc(Cl)cc2)C1=O (stereo not given) | < 10%
9 | > 30 µM | Cc1ccc(/C=C2\CCCC(C)C2=O)cc1 (stereo not given) | < 10%
10 | 10.5 µM | CC12CCC3(C=C1CC/C(=C\c1ccccc1)C2=O)SCCS3 (stereo not given) | 85%
11 | 3.5 µM | COc1ccc(/C=C2\CCC3=CC4(CCC3(C)C2=O)SCCS4)cc1 (stereo not given) | > 100%
12 | 23 µM | Cc1ccc(/C=C2\CCC3=CC(=O)CCC3(C)C2=O)cc1 (stereo not given) | 60%
13 | 7.6 µM | CN(C)c1ccc(/C=C2\CCC3=CC4(CCC3(C)C2=O)SCCS4)cc1 (stereo not given) | 65%

The remaining lines, values behind:

Row | SMILES | IC50 (B16 [2]) | inhibition at 10 µM (B16 [1])
14 | COCOc1ccc(/C=C2\CCC3=CC4(CCC3(C)C2=O)SCCS4)cc1 (stereo not given) | 6 µM | 92%
15 | OC[C@H]1O[C@@H](Oc2ccc(O)cc2)[C@H](O)[C@@H](O)[C@@H]1O [ARBUTIN] | 120 µM | –
16 | CC12CCC3(C=C1CC/C(=C\c1ccc(Cl)cc1)C2=O)SCCS3 (stereo not given) | > 30 µM | 35%
17 | CCc1ccc(/C=C2\CCC3=CC4(CCC3(C)C2=O)SCCS4)cc1 (stereo not given) | 18.5 µM | 80%
18 | CC1CCC/C(=C\c2ccc(O)cc2)C1=O (stereo not given) | > 30 µM | < 10%
19 | CC12CCC3(C=C1CC/C(=C\c1ccc(C(C)(C)C)cc1)C2=O)SCCS3 (stereo not given) | 13.5 µM | 83%
20 | COc1ccc(/C=C2\CCCC(C)C2=O)cc1 (stereo not given) | > 30 µM | < 10%
21 | CC12CCC3(C=C1CC/C(=C\c1ccc(O)cc1)C2=O)SCCS3 (stereo not given) | 4.3 µM | 96%
22 | CC12CCC3(C=C1CC/C(=C\C=C\c1ccccc1)C2=O)SCCS3 (stereo not given) | 16.5 µM | 75%
23 | CC12CCC3(C=C1CCCC2=O)SCCS3 (stereo not given) | > 30 µM | < 10%
